From patent US6916802B2, “Amino ceramide-like compounds and therapeutic methods of use” (Genzyme Corporation, priority 2002, dated 2005)

Tests used:
[1] = tested on: GlcCer synthase of MDCK cell homogenates; experiment: Inhibition of ceramide glucosyltransferase (GlcCer synthase) of MDCK cell homogenates; type: biochemical, canine
Outline: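 MDCK cell sonicate (~0.2 mg protein) incubated with octanoyl sphingosine (85 μg, in dioleoylphosphatidylcholine/sulfatide liposomes) and UDP-[^3H]glucose in a thermostatted ultrasonic bath. Aromatic inhibitors were dried into the tube; aliphatic inhibitors were incorporated in the substrate liposomes.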

[2] = tested on: GlcCer synthase of rabbit liver microsomes; experiment: GlcCer synthase of rabbit liver microsomes; type: biochemical

inhibitory activity against GlcCer synthase of rabbit liver microsomes [2]: no inhibitory activity
Compound: CCCCCCCCCCCCCCCC(=O)NC(CN1CCN(c2ccccc2)CC1)C(O)c1ccccc1 (mixture of isomers) [BML-112]
activity against GlcCer synthase, in words [1]: little or no activity
